One experiment relates to HT1080 cells. Kind of experiment: Cell adhesion assay on coated plates (HT1080 cells). Type of experiment: cell-based, human. Particulars: data not shown.
The next experiment deals with T1, integrin α9β1 (Homo sapiens, UniProt P05556+Q13797).
T1 construct: A cDNA encoding the extracellular region of human integrin α9; An expression vector for the extracellular region of integrin β1; ACID coiled-coil (Velcro) peptide; FLAG; BASE coiled-coil (Velcro) peptide; made in house; host or cells: FreeStyle 293 Expression System (293-F cells)
Nature of the experiment: Direct integrin binding assay with recombinant integrin α9β1. The text has this:
A cDNA encoding the extracellular region of human integrin α9 was amplified by RT-PCR from total RNA extracted from RD cells and cloned into pBluescript KS(+). After verification of the nucleotide sequence, an error-free cDNA fragment was inserted into pcDNA-ACID-FLAG (Nishiuchi, R., Takagi, J., Hayashi, M., Ido, H., Yagi, Y., Sanzen, N., Tsuji, T., Yamada, M., and Sekiguchi, K. (2006) Matrix Biol. 25, 189-197). An expression vector for the extracellular region of integrin β1 was provided by Dr. Junichi Takagi (Takagi, J., Erickson, H. P., and Springer, T. A. (2001) Nat. Struct. Biol. 8, 412-416). The recombinant integrins were produced using the Freestyle™ 293 Expression System (Invitrogen) and purified as described in the above-mentioned publication Matrix Biol. 25, 189-197, (2006).
An integrin binding assay was performed as described in the above-mentioned publication Matrix Biol. 25, […], (2006). In some experiments, integrins were preincubated with synthetic peptides at various concentrations to evaluate the inhibitory activities of the synthetic peptides. The apparent dissociation constants were determined as described in Nishiuchi, R., Murayama, O., Fujiwara, H., Gu, J., Kawakami. T., Aimoto, S., Wada, Y., and Sekiguchi, K. (2003) J. Biochem, 134, 497-504.
To corroborate the role of integrin α9β1 as an adhesion receptor for polydom, a direct integrin binding assay was performed, using recombinant integrin α9β1. Plates were coated with full-length polydom, pol-N, pol-C, plasma fibronectin (pFN) or cellular fibronectin (cFN), and recombinant integrin α9β1 was added and allowed to bind thereto in the presence of 1 mM MnCl2 or 10 mM EDTA. BSA was used as a negative control. The bound integrin was quantified using a biotinylated anti-Velcro antibody and HRP-conjugated streptavidin.
Integrin α9β1 is known to bind to the third fibronectin type III domain of tenascin-C (TNfn3) and the osteopontin N-terminal half (OPN-Nhalf). These integrin α9β1 ligands were recombinantly expressed as GST fusion proteins and then purified. In the GST fusion proteins, the RGD cell-adhesive motifs were replaced with RAA to nullify their abilities to interact with RGD-binding integrins, such as those containing the αv subunit, Microtiter plates were coated with pol-C (10 nM), GST-TNfn3-RAA (100 nM) or GST-OPN-Nhalf-RAA (100 nM), and integrin α9β1 was added and allowed to bind thereto in the presence of 1 mM MnCl2.
To locate the integrin α9β1-binding site within polydom, a series of five N-terminal deletion mutants of polydom (pol-C, ΔEGF6, ΔPTX, ΔCCP20 and ΔCCP21; see FIG. 9) were constructed. Their binding activities for integrin α9β1 were evaluated in the presence of 1 mM MnCl2 or 10 mM EDTA using microtiter plates coated with these recombinant proteins (10 nM).
Among the 34 CCP domains within polydom, CCP21 is unique because it contains about 40 extra amino acids as compared with the other CCP domains. An assay to examine whether this extra region (hereinafter referred to as “extra segment”) within CCP21 is involved in binding to integrin α9β1 was performed, Microtiter plates were coated with a GST-CCP21 fusion protein, a D2628-S2664 deletion mutant of the GST-CCP21 fusion protein (CCP21ΔD2628-S2664), D2628-S2664 alone (see FIG. 11), pol-C or GST alone, and integrin α9β1 was added and allowed to bind thereto in the presence of 1 mM MnCl2 or 10 mM EDTA.
To further narrow down the region responsible for binding to integrin α9β1, the extra 37-amino acid segment of CCP21 was divided into smaller segments, of which GST fusion proteins were produced. Microtiter plates were coated with eight kinds of segments including CCP21, pol-C and GST alone, and integrin α9β1 was added and allowed to bind thereto in the presence of 1 mM MnCl2 or 10 mM EDTA.
To identify the residues involved in binding to Integrin α9β1, alanine scanning mutants and N-terminal or C-terminal deletion mutants of D2634-L2645 were produced as GST fusion proteins. […]

In another experiment the test system is RD cells. Nature of the experiment: Cell adhesion assay on coated plates (RD cells). It counts as cell-based, human. As to the method:
A cell adhesion assay was performed as described in Sato, Y. , Uemura, T., Morimitsu, K., Sato-Nishiuchi, R., Manabe, R., Takagi, J., Yamada, M., and Sekiguchi, K. (2009) J. Biol. Chem. 284, 14524-14536. For an assay involving blocking antibodies, RD cells (human rhabdomyosarcoma cells) were preincubated with monoclonal antibodies of interest at room temperature for 15 minutes and plated on 96-well plates coated with recombinant polydom proteins or fibronectin. The cells were incubated for 30 minutes, washed, fixed with 3.7% formaldehyde, and stained with 0.5% toluidine blue.
The cells were plated on 96-well plates coated with serial diluted concentrations of full-length polydom, pol-N, pol-C or plasma fibronectin (FN) and incubated at 37° C. for 30 minutes. After washing out unattached cells, attached cells were fixed and stained with toluidine blue. The attached cells were counted under a microscope. The assay was performed in triplicate.

Another experiment has as its system A549 cells. Kind of experiment: Cell adhesion assay on coated plates (A549 cells). Type of experiment: cell-based, human. Particulars: data not shown.

T1 sequence (Q13797 30-981 limits assumed): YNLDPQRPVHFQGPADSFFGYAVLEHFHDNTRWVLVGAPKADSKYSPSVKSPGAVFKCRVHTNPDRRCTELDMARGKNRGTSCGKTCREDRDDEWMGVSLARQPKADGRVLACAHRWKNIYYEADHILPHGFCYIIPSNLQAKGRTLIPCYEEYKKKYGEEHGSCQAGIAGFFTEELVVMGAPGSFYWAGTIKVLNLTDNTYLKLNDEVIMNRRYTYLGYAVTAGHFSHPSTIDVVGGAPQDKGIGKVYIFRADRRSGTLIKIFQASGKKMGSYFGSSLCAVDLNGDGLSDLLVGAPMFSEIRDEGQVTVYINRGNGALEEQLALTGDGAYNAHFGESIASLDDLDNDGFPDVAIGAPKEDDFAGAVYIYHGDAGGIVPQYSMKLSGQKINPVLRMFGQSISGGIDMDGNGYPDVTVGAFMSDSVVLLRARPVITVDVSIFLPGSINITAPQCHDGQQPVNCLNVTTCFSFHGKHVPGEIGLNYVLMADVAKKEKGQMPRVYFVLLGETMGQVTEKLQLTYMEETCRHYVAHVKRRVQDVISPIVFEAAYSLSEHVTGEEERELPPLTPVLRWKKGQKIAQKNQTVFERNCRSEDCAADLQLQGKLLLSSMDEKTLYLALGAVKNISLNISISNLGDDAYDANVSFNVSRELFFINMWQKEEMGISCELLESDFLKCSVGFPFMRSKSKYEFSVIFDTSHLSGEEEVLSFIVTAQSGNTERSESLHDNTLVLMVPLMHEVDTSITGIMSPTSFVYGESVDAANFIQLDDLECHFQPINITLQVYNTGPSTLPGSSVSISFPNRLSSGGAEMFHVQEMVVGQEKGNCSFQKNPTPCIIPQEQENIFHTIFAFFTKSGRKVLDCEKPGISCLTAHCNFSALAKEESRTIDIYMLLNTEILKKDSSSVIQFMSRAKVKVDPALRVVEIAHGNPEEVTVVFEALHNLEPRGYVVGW
T1 sequence (P05556 21-728 limits assumed): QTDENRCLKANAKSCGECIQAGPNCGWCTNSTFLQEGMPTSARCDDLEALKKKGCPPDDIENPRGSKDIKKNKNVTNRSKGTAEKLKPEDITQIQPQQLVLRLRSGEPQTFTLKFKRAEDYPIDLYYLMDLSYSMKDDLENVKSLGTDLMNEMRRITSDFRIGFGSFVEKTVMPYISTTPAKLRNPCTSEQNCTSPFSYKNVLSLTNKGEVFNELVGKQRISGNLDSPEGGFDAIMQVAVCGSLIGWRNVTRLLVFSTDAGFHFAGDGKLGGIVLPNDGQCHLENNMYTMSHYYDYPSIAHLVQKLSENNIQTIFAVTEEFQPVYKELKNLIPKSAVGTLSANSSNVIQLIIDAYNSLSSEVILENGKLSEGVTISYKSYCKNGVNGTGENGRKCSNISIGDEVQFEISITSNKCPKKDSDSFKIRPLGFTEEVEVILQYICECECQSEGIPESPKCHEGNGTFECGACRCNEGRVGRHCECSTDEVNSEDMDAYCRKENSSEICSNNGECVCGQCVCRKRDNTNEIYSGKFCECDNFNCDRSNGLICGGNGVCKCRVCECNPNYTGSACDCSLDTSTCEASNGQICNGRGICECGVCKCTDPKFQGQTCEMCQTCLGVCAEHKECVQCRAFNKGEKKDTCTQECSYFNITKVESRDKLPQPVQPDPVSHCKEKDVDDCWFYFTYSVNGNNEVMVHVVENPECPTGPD

With “polydom: recombinant mouse SVEP1 (SEQ ID NO: 2), ECM protein, ligand for integrin α9β1”, in the experiment with HT1080 cells, the “adhesion of HT1080 cells” value was “did not adhere”. In addition, the “binding of recombinant integrin α9β1 to coated protein” value with integrin α9β1 (1 mM MnCl2, FIG. 7) is on record as “bound”. In addition, the “binding of recombinant integrin α9β1 in the presence of EDTA” value with integrin α9β1 (10 mM EDTA, FIG. 7) is listed as “completely abrogated”. Also, the “coating concentration attaining the maximum adhesion of RD cells” value in the experiment with RD cells (96-well plates, 37° C. for 30 minutes, FIG. 4) is 3 µg/mL. Besides, the “promotion of RD cell adhesion” value in the experiment on RD cells (coated 96-well plates, 37° C. for 30 minutes, FIG. 4) is given as “coating concentration-dependent manner”. The “morphology of attached RD cells” value in the experiment with RD cells (microscopic observation, FIG. 5) is reported as “exhibited spread morphology”. In addition, the “adhesion of A549 cells” value in the experiment on A549 cells is recorded as “did not adhere”.

For the origin of these results see patent US20150086557A1, “NOVEL INTEGRIN alpha9 beta1 LIGAND AND USES THEREOF” (OSAKA UNIVERSITY, priority 2012, published 2015).
